One may read the IC50 as the concentration at which inhibition is half-maximal. A word on the melting point: it is the temperature of the solid-liquid transition.

Where two headings read alike, the source gives them in different places.

One data set has as its system tau phosphorylation. The data set is described as follows: Inhibitory activity on tau phosphorylation in vivo (pS396 Western blot of mouse cortex). Particulars: 10 mg/kg p.o., male CD-1 mice, cortex removed after 1 h, pS396 antibody; ** = statistically significant. As for the experimental part:
Test compound was administrated to male CD-1 mice of 5-6 weeks weighing 25-35 g (Charles River Japan, inc.) at 10 mg/kg p.o. (0.5% polyethylen glycol sorbitan monolaurate 80 (Tween80)/water suspension) and after 1 h, mice were decapitated and cortex was promptly removed, followed by being frozen in liquid N2. […] Protein concentrations were determined using DC protein assay kit (BIO-RAD). Supernatants were diluted with sample buffer (62.5 mM Tris-HCl, 25% glycerol, 2% SDS, 0.01% Bromophenol Blue, pH6.8) to adjust the protein concentrations around […] and then boiled for […]. Samples (10 μg) were separated on 10% sodium dodecyl sulfate-polyacrylamide electrophoresis (SDS-PAGE) mini slab gels and transferred onto polyvinylidene difluoride (PVDF) membranes. Membranes were incubated with phosphate buffered saline (PBS) containing 5% non-fat milk for 1h at room temperature and then probed with pS396 anti-body (BIOSOURCE) over night at 4° C. Anti-rabbit IgG horseradish peroxidase (HRP) conjugated anti-body (Promega) was used as secondary anti-body. Membranes were visualized by Enhanced ChemiLuminescence (ECL) kit (Amerasham Bioscience) and detected by LAS1000 (Fuji Photo Film).

A further data set has as its target CYP2D6 (Homo sapiens, UniProt P10635). In words: Inhibitory activity on CYP2D6 (human recombinant CYPs). In kind it is in vitro ADME. Particulars: human recombinant CYP2D6, substrate ethylene glycol ester of luciferin-6'-methyl ether, 37° C., read-out: CYP 2D6 inhibition, IC50 value. The method, then: The purpose of this pharmacokinetic study was to investigate the inhibitory effects of test compounds on the specific metabolic activity of human CYP isozymes using human recombinant CYPs in vitro. […] The specific substrate and positive control is ethylene glycol ester of luciferin-6′-methyl ether and quinidine, respectively. The substrate for the CYP isozyme was incubated with human recombinant CYPs in the presence or absence of the test compounds and the metabolic activity of the CYP isozyme was determined. The reaction mixture was preincubated at 37° C. without NADPH generating system. The reaction was started by the addition of NADPH generating system, and then terminated by the addition of acetonitrile. The activities of the human CYP isozymes were measured by fluorescence signal (CYP2D6) of reaction mixture. IC50 value for each compound was calculated by setting the data of reaction mixture without compound as 100% activity.

The mark [1] stands for this setting: probe ethylene glycol ester of luciferin-6'-methyl ether.

Chain of CYP2D6 (P10635 whole entry): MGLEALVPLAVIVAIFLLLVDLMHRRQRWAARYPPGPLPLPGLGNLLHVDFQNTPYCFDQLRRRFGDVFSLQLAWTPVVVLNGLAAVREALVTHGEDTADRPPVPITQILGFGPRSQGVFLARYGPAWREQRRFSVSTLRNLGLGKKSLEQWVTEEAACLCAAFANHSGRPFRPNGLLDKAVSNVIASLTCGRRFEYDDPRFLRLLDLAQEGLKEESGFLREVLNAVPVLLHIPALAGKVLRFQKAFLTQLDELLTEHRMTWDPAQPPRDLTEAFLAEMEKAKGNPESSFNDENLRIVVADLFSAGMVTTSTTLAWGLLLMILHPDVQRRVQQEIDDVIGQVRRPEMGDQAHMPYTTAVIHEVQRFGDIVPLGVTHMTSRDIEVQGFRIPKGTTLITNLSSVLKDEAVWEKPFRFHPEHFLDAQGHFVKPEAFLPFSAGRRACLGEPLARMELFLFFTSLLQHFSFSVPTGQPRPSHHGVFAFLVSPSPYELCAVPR

With `Cn1c(N2CCOC(c3nc(-c4ccccc4)no3)C2)nc(-c2ccncn2)cc1=O` (centres unmarked) [Compound 1, 1-Methyl-2-[2-(3-phenyl-[1,2,4]oxadiazol-5-yl)-morpholin-4-yl]-1H-[4,4′]bipyrimidinyl-6-one], the “in vivo % phosphorylation against vehicle” value in the data set on tau phosphorylation amounted to 92.12%. In addition, the IC50 at CYP2D6 (setting [1]) is greater than 50 µM.
`Cn1c(N2CCOC(c3noc(-c4ccccc4)n3)C2)nc(-c2ccncn2)cc1=O` (centres unmarked) [Compound 2, 1-Methyl-2-[2-(5-phenyl-[1,2,4]oxadiazol-3-yl)-morpholin-4-yl]-1H-[4,4′]bipyrimidinyl-6-one]: on CYP2D6 (setting [1]), the IC50 is greater than 25 µM.
Regarding `Cn1ccnc1-c1ccc(C2CN(c3nc(-c4ccncn4)cc(=O)n3C)CCO2)cc1` (centres unmarked) [Compound 4, 1-Methyl-2-{2-[4-(1-methyl-1H-imidazol-2-yl)-phenyl]-morpholin-4-yl}-1H-[4,4′]bipyrimidinyl-6-one], the melting point was 179.8 °C (dec.). Besides, the IC50 at CYP2D6 (setting [1]) is greater than 50 µM.
For the compound `Cc1noc(-c2ccc([C@H]3CN(c4nc(-c5ccncn5)cc(=O)n4C)CCO3)cc2)n1` [Compound of the present invention, 3-Methyl-2-((2S)-2-(4-(3-methyl-1,2,4-oxadiazol-5-yl)phenyl)morpholino)-6-(pyrimidin-4-yl)pyrimidin-4(3H)-one], the melting point is 219 °C (dec.). In addition, the “in vivo % phosphorylation against vehicle” value in the data set on tau phosphorylation was 69.86** %. Besides, at CYP2D6, the IC50 is greater than 50 µM.
